{"source": "ChEMBL document CHEMBL1201862", "about": "“PubChem BioAssay data set” (2004)", "key": {"[1]": {"experiment": "Luminescence Cell-Based Dose Response HTS to Identify Activators of Luciferase Translation or Activity in H4 […] Cells. [Related pubchem assays: 1829 (Project Summary), 1814 (Primary HTS)]", "format": "functional"}, "Nonstructural protein 1": {"biological_target": "Nonstructural protein 1 (Influenza A virus, UniProt Q194T2)", "sequence (Q194T2 whole entry)": "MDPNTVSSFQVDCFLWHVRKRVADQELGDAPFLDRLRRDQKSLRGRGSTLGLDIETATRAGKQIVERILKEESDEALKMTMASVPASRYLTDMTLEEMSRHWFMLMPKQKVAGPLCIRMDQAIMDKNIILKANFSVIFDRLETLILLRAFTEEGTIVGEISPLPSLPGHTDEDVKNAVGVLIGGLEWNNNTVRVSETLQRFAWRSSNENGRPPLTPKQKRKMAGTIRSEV", "format": "functional, Influenza A virus (A/California/07/2009(H1N1))"}, "H4": {"test_system": "H4", "experiment": "Luminescence Cell-Based Dose Response HTS to Identify Activators of 5'UTR Stem-Loop Driven Prion Protein mRNA Translation in H4 Neuroglioblastoma Cells. [Related pubchem assays: 1829 (Project Summary), 1814 (Primary HTS)]", "format": "functional", "conditions": "Homo sapiens"}, "[2]": {"experiment": "Luminescence Cell-Based Dose Confirmation HTS to Identify Activators of 5'UTR Stem-Loop Driven Alpha-Synuclein mRNA Translation in H4 Neuroglioblastoma Cells. [Related pubchem assays: 1829 (Project Summary), 1814 (Primary HTS)]", "format": "functional"}, "[3]": {"biological_target": "Eukaryotic translation initiation factor 4E (Mus musculus, UniProt P63073)", "sequence (P63073 whole entry)": "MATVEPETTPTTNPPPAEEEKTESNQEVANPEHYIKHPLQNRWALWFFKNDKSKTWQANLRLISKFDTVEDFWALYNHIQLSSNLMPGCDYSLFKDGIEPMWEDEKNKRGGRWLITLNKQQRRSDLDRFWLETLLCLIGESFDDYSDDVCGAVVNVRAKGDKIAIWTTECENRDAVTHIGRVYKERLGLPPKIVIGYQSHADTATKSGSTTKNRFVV", "experiment": "blockers of eIF4G binding by eIF4E – biochemical, TR-FRET, dose response (AID 855);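 note: potency for disrupting eIF4E binding to eIF4GI seen as loss of FRET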", "format": "functional"}, "Coagulation factor XII": {"biological_target": "T1, Coagulation factor XII (Homo sapiens, UniProt P00748)", "T1 sequence (P00748 whole entry)": "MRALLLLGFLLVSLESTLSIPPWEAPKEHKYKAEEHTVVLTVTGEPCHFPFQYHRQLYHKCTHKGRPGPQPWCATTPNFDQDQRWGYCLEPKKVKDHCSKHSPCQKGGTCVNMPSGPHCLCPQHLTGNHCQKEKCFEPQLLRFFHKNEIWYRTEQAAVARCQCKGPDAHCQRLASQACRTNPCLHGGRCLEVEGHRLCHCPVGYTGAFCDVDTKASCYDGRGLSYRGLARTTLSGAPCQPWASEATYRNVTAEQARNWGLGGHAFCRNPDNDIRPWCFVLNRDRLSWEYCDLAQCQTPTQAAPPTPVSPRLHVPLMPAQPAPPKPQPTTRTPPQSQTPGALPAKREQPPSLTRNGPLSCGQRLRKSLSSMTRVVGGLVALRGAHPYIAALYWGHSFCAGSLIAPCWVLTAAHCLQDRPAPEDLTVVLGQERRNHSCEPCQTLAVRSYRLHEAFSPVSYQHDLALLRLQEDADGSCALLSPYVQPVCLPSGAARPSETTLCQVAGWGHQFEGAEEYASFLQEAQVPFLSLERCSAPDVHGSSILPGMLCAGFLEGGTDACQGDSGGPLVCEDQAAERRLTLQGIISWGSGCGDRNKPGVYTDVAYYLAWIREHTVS", "format": "functional"}, "[4]": {"experiment": "viability of uninfected HEp-2 cells – cell-based, HTS, cytotoxicity control for RSV inhibitor project, dose response (AID 2410)", "format": "functional", "conditions": "human respiratory syncytial virus"}, "Aminopeptidase N": {"biological_target": "T2, Aminopeptidase N (Plasmodium falciparum FcB1/Columbia, UniProt O96935)", "T2 sequence (O96935 whole entry)": "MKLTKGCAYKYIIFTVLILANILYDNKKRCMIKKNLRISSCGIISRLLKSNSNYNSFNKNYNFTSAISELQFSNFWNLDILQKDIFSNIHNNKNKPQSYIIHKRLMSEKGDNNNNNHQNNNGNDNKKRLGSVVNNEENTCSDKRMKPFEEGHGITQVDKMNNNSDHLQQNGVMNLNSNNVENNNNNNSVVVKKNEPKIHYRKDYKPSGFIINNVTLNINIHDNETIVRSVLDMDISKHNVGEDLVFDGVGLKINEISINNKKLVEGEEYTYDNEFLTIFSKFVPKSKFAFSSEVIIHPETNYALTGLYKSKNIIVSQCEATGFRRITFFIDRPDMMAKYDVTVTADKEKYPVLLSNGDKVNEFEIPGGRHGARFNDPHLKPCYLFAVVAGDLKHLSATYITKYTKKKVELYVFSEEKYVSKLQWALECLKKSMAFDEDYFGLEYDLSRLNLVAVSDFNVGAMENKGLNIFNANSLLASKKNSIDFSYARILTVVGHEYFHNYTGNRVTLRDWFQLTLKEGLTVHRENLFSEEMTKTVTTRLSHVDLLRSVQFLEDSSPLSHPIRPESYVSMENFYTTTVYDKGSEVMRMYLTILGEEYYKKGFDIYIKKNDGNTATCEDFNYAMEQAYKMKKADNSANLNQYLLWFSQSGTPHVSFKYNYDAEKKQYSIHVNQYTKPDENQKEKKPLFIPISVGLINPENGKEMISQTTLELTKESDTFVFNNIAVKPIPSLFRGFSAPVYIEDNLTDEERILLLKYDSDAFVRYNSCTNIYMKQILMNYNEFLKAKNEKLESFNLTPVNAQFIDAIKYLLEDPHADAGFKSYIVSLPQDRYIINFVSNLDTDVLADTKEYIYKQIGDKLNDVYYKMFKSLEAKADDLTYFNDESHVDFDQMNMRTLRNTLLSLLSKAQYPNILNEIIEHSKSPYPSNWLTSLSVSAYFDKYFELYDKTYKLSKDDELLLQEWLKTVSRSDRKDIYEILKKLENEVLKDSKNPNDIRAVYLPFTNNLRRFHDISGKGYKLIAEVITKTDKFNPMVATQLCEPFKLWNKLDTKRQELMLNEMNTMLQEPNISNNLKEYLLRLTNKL", "experiment": "malaria alanyl aminopeptidase activity blockers – biochemical, fluorogenic H-Leu-NHMec substrate, 1536-well (AID 1445)", "parameters": "species or system Plasmodium falciparum 3D7, 3D7"}, "[5]": {"experiment": "microbe, parasite or virus in culture", "format": "functional", "conditions": "Mycobacterium tuberculosis"}, "Streptokinase A": {"biological_target": "T3, Streptokinase A (Streptococcus pyogenes serotype M1, UniProt P10520)", "T3 sequence (P10520 whole entry)": "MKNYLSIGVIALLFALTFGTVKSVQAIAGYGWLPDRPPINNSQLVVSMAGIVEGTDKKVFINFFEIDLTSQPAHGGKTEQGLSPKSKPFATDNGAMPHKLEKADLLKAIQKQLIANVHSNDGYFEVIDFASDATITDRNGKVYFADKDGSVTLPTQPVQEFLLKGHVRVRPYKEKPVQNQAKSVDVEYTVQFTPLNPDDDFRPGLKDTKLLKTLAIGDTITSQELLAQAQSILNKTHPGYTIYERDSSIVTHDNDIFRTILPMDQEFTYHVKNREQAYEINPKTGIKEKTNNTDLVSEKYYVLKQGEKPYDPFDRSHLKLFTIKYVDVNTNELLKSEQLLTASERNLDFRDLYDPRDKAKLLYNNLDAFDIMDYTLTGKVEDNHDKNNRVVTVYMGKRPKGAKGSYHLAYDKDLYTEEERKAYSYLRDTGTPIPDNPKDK", "experiment": "viability-normalized secreted streptokinase activity reduction – plasminogen activation absorbance, OD405, dose response (AID 1914)", "format": "functional, Streptococcus pyogenes M1 GAS"}, "[6]": {"test_system": "Streptococcus sp. 'group A'", "experiment": "Streptococcus pyogenes SK(-)GAS viability under kanamycin – luminescence, BacTiterGlo, confirmation, counter-screen for streptokinase expression inhibitor project, dose response (AID 1900)", "format": "functional, organism-based"}, "Streptococcus": {"test_system": "Streptococcus", "experiment": "GAS UMAA2166 growth inhibition – luminescence, BacTiterGlo, counter-screen for streptokinase expression inhibitor project, dose response (AID 1915);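 note: potency for reduction of bacterial viability or growth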", "format": "functional, organism-based"}, "Fatty acid synthase [7]": {"biological_target": "T4, Fatty acid synthase (Homo sapiens, UniProt P49327)", "T4 sequence (P49327 whole entry)": "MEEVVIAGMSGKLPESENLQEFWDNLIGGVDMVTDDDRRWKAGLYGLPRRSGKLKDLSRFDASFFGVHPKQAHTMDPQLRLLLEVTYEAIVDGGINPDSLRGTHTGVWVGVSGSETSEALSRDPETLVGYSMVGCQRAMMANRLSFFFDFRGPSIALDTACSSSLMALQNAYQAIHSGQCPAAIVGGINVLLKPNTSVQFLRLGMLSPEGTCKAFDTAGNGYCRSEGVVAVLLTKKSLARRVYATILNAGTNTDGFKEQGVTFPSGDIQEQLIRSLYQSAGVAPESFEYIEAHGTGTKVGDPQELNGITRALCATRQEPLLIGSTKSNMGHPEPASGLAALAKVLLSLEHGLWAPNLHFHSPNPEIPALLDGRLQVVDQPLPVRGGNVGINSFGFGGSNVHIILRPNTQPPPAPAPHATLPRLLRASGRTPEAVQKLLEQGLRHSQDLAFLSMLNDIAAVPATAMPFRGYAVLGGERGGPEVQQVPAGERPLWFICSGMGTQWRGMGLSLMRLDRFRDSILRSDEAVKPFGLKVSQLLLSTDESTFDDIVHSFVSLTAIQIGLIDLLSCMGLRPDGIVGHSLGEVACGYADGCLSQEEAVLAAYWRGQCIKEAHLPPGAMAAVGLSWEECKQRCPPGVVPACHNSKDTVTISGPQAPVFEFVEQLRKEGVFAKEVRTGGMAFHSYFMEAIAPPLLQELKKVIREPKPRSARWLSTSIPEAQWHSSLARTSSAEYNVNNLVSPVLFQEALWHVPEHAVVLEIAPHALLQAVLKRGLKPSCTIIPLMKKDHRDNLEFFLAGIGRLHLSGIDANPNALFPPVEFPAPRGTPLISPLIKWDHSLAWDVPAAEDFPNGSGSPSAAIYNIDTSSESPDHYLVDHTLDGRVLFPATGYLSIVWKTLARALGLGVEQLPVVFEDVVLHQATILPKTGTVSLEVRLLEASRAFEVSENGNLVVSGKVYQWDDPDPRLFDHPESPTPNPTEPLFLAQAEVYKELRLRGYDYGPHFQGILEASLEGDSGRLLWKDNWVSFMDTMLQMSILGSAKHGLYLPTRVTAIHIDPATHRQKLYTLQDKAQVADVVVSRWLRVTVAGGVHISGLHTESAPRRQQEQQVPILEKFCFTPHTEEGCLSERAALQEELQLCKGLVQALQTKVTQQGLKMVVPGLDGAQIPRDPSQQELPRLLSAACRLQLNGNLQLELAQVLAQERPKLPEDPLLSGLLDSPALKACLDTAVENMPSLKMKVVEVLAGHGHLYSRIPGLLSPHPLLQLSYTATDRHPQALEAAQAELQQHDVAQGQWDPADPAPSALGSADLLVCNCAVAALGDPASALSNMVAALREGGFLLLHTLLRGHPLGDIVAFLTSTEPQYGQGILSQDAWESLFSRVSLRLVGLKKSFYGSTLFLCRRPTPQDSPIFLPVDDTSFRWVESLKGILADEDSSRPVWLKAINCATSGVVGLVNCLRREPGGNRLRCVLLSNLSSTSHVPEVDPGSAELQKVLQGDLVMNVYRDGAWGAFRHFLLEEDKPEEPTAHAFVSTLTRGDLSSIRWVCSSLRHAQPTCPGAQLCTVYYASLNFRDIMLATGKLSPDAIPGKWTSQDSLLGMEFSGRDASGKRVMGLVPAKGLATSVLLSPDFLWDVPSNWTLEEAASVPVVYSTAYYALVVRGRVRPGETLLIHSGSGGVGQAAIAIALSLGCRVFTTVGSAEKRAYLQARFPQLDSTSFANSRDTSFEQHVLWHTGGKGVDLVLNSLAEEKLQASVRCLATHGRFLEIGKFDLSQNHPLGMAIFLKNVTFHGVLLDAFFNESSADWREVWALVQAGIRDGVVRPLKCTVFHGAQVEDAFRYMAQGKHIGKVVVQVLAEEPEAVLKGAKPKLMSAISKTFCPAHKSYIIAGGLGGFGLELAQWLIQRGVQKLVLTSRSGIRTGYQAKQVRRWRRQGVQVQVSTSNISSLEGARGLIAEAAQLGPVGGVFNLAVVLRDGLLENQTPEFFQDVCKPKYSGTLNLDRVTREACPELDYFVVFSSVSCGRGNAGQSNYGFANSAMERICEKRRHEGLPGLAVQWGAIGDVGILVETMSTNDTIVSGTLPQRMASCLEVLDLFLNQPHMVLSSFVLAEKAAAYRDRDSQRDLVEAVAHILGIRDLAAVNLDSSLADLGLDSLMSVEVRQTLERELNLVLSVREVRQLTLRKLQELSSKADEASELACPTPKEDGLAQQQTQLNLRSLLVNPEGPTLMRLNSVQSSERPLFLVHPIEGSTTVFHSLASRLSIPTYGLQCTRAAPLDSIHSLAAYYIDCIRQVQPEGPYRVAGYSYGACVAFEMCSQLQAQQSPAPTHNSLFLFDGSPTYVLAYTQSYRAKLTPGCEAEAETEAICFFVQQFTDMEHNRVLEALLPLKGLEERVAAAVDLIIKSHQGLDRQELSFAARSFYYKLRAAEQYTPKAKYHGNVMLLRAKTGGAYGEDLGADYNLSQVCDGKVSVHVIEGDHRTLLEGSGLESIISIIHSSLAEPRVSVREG", "experiment": "inhibition of human FAS-TE enzyme activity – biochemical, endpoint fluorescence intensity, uHTS hits, dose response (AID 624327);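 note: fluorescence from hydrolysis of an O-methyl fluorescein acyl ester substrate by the enzyme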", "format": "functional"}, "Fatty acid synthase [8]": {"biological_target": "T4, Fatty acid synthase", "experiment": "inhibition of human FAS-TE enzyme activity – biochemical, kinetic fluorescence intensity, dose response (AID 624326);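 note: rate of fluorescence rise from hydrolysis of a fluorogenic O-methyl fluorescein ester substrate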", "format": "functional"}, "[9]": {"biological_target": "Induced myeloid leukemia cell differentiation protein Mcl-1 (Homo sapiens, UniProt Q07820)", "sequence (Q07820 whole entry)": "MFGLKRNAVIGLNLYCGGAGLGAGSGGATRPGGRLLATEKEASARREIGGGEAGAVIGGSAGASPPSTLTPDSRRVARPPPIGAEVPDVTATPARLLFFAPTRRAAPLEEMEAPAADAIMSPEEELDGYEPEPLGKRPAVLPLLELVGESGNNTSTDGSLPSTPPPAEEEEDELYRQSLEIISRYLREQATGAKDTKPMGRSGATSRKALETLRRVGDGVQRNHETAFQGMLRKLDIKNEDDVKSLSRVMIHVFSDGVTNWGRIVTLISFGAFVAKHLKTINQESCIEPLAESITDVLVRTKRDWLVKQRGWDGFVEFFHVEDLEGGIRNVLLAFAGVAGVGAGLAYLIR", "format": "functional"}, "[10]": {"experiment": "alpha-synuclein stem-loop luciferase translation blockers – H4 neuroglioma cells, luminescence, confirmation (AID 1988)", "format": "functional, cell-based"}, "[11]": {"experiment": "luciferase reporter signal suppression in cells – H4 neuroglioma cells, luminescence, dose response (AID 1990)", "format": "functional, cell-based"}, "[12]": {"experiment": "Luminescence Cell-Based Dose Response HTS to Identify Inhibitors of 5'UTR Stem-Loop Driven Prion Protein mRNA Translation in H4 Neuroglioblastoma Cells. [Related pubchem assays: 1827 (Project Summary), 1813 (Primary HTS)]", "format": "functional"}}, "note": "Activity calls are given as the source filed them."}
{"smiles": "C[n+]1c(/C=C/c2ccc(O)cc2)ccc2ccccc21", "values": [{"measurement": "EC50", "setting": "[1]", "result": "5.65 µM (active)"}, {"measurement": "IC50", "setting": "Nonstructural protein 1", "result": "> 100 µM (active)"}, {"measurement": "EC50", "setting": "H4", "result": "7.6 µM (active)"}, {"measurement": "EC50", "setting": "[2]", "result": "12.5 µM (active)"}]}
{"smiles": "Cc1ccc(S(=O)(=O)N2CCN(C(C)C(=O)Nc3ccccc3-c3ccccc3)CC2)cc1", "note": "(stereo unspecified)", "values": [{"measurement": "IC50", "setting": "[3]", "result": "> 64 µM (inactive)"}]}
{"smiles": "O=C(COC(=O)c1ccccc1Br)Nc1ccc(F)cc1", "values": [{"measurement": "IC50", "setting": "Coagulation factor XII", "result": "> 50 µM (inactive)"}]}
{"smiles": "COc1ccccc1NC(=O)Nc1nn(C)c2cccc(OC)c12", "values": [{"measurement": "CC50", "setting": "[4]", "result": "41.1 µM (active)"}, {"measurement": "IC50", "setting": "cells", "result": "41.2 µM (active)"}]}
{"smiles": "CCCOc1ccc(N2C(=O)CC(N(Cc3ccc(OC)cc3)C(S)=Nc3ccccc3)C2=O)cc1", "note": "(stereo unspecified)", "values": [{"measurement": "CC50", "setting": "[4]", "result": "> 50 µM (active)"}, {"measurement": "IC50", "setting": "cells", "result": "7.34 µM (active)"}]}
{"smiles": "Cc1ccc(O)c(NC(=S)NC(=O)Cc2ccc(Cl)cc2)c1", "values": [{"measurement": "CC50", "setting": "[4]", "result": "29.4 µM (active)"}, {"measurement": "IC50", "setting": "cells", "result": "23.4 µM (active)"}]}
{"smiles": "COc1ccc(CN(C(=O)c2snc(C(N)=O)c2N)C(C(=O)NC(C)(C)C)c2ccco2)cc1", "note": "(stereo unspecified)", "values": [{"measurement": "IC50", "setting": "Coagulation factor XII", "result": "> 50 µM (inactive)"}]}
{"smiles": "COc1ccc(C(C)=O)cc1CSc1nc2cc(C(=O)O)ccc2c(=O)n1Cc1ccccc1", "values": [{"measurement": "IC50", "setting": "Aminopeptidase N", "result": "83.5 µM (active)"}]}
{"smiles": "C#CCCOC(=O)N1C2=NC(C(=O)OC)=C(C(=O)OC)[C@@H]3N(CC=C)c4ccccc4[C@]23C[C@H]1C(=O)OC", "values": [{"measurement": "IC50", "setting": "Aminopeptidase N", "result": "58.5 µM (active)"}]}
{"smiles": "CC(C1CC2CCC1C2)N1CC(=O)C(c2nc3ccccc3[nH]2)=C1N", "note": "(stereo unspecified)", "values": [{"measurement": "IC50", "setting": "Coagulation factor XII", "result": "> 50 µM (inactive)"}]}
{"smiles": "Cc1ccc(S(=O)(=O)N(C)CCCC(=O)Nc2cc(C)ccc2C)cc1", "values": [{"measurement": "IC50", "setting": "Nonstructural protein 1", "result": "22.9 µM (active)"}]}
{"smiles": "Cc1nn(-c2ccccc2)c2c1C(c1ccc([N+](=O)[O-])cc1)N1C(=N2)C(=O)Nc2ccccc21", "note": "(stereo unspecified)", "values": [{"measurement": "CC50", "setting": "[4]", "result": "34.8 µM (active)"}, {"measurement": "IC50", "setting": "cells", "result": "31.5 µM (active)"}, {"measurement": "CC50", "setting": "[5]", "result": "39.3 µM (active)"}]}
{"smiles": "Oc1c(C(c2cccs2)N2CCN(c3ccccc3)CC2)ccc2cccnc12", "note": "(stereo unspecified)", "values": [{"measurement": "IC50", "setting": "[3]", "result": "> 64 µM (inactive)"}]}
{"smiles": "Cc1cc(Br)c2[nH]c3c(c2c1)CCCC3=O", "values": [{"measurement": "IC50", "setting": "Coagulation factor XII", "result": "> 50 µM (inactive)"}]}
{"smiles": "COc1ccc(OCC(=O)N2CC3(C)CC2CC(C)(C)C3)cc1", "note": "(stereo unspecified)", "values": [{"measurement": "IC50", "setting": "[3]", "result": "> 64 µM (inactive)"}]}
{"smiles": "CC(=O)C1=C(C)NC(SCc2ccc(C#N)cc2)=C(C#N)C1c1ccco1", "note": "(stereo unspecified)", "values": [{"measurement": "IC50", "setting": "[3]", "result": "> 64 µM (inactive)"}]}
{"smiles": "CC1(C)Oc2ccc3ccc(=O)oc3c2C(/C=N/NC(N)=S)=C1O", "values": [{"measurement": "EC50", "setting": "Streptokinase A", "result": "> 150 µM (not active)"}, {"measurement": "IC50", "setting": "Nonstructural protein 1", "result": "26.6 µM (active)"}, {"measurement": "EC50", "setting": "[6]", "result": "3.2 µM (active)"}, {"measurement": "EC50", "setting": "Streptococcus", "result": "22.8 µM (active)"}]}
{"smiles": "COc1cc(/C=N/NC(=O)C(Cc2c[nH]c3ccccc23)NC(=O)OCc2ccccc2)cc([N+](=O)[O-])c1O", "note": "(stereo unspecified)", "values": [{"measurement": "IC50", "setting": "Fatty acid synthase [7]", "result": "5.95 µM (active)"}, {"measurement": "IC50", "setting": "Fatty acid synthase [8]", "result": "8.12 µM (active)"}, {"measurement": "IC50", "setting": "[9]", "result": "6.11 µM (active)"}, {"measurement": "IC50", "setting": "Aminopeptidase N", "result": "4.75 µM (active)"}]}
{"smiles": "CC1(C)OC(=C/C=N/c2ccc(Cl)cc2)OC1(C)C", "values": [{"measurement": "EC50", "setting": "[10]", "result": "> 120 µM (not active)"}, {"measurement": "EC50", "setting": "[11]", "result": "> 120 µM (not active)"}, {"measurement": "IC50", "setting": "Coagulation factor XII", "result": "> 50 µM (inactive)"}, {"measurement": "EC50", "setting": "[12]", "result": "> 120 µM (not active)"}]}
